The values that follow come from patent CN102066974A, “用于蛋白、肽和其他分子的f-18标记的改进方法和组合物” (Immunomedics Inc, priority 2008, dated 2011).

“And” between values parts separate entries of the source, which are not always exact repeats. Equal values may be shown once. Numbered stars: 1 amine (or outer) side, 2 acyl side, 3 side chain; on linkers, the order of the positions; unused ones are H or OH. Square brackets hold non-standard residues; d marks the D form. Side chains are listed from the residue outwards. Peptide text beside a SMILES is read from it. * marks the point of attachment. NOTA(2S-Bn(4-NHCS)) = O=C(O)CN1CCN(CC(=O)O)C[C@H](Cc2ccc(NC(=S)*)cc2)N(CC(=O)O)CC1; X1 = O=C(O)CN1CCN(CC(=O)O)CC(Cc2ccc(NC(=S)*)cc2)N(CC(=O)O)CC1; DOTA = O=C(O)CN1CCN(CC(=O)O)CCN(CC(=O)*)CCN(CC(=O)O)CC1; DTPA = O=C(O)CN(CCN(CC(=O)O)CC(=O)O)CCN(CC(=O)O)CC(=O)*; NH(2-(imidazol-4-yl)ethyl) = c1ncc(CCN*)[nH]1; NOTA = O=C(O)CN1CCN(CC(=O)O)CCN(CC(=O)*)CC1; X2 = N[C@H](CC(=O)*)c1ccccc1Br; Suc = O=C(CCC(=O)[*:2])[*:1]; Dap = NC[C@H](N)C(=O)O; Aoc = NCCCCCCCC(=O)O

The test system of series [1] is LS174T肿瘤. The experiment in a line: TF2-pretargeted biodistribution in BALB/c nude mice with s.c. LS174T tumours (Example 27).
Series [2] deals with LS174T肿瘤. As to the kind of experiment: PET/CT image quantification (region of interest ratios). As to conditions: mouse, in vivo.
Series [3] has as its system AR42J肿瘤. As to the kind of experiment: Biodistribution in BALB/c nude mice with s.c. AR42J tumours. As to conditions: 2 h p.i. In kind it is in vivo, mouse.
In series [4] the test system is LS174 T异种移植物. The experiment in a line: Biodistribution of 111In-IMP 449 and [Al18F]IMP 449 with or without TF2 in nude mice with sc LS174T xenografts. It counts as in vivo, mouse. Particulars: 1 h after peptide.
Series [5] is described as follows: Stability of Al18F-peptide complex in water (peptide labelling screen). It counts as physicochemical.
For series [6], the system named is PC-3细胞. It counts as binding. As to conditions: first experiment, inhibitor 56 to 0.44 nM.
The nature of series [7]: Biodistribution of unbound 18F fraction and purified [Al18F]IMP 449 in SCID mice, no pretargeting. In kind it is in vivo, mouse. As to conditions: 1 h p.i., no bsMAb.
The subject of series [8] is CaPan1异种移植物. As to the kind of experiment: TF10-pretargeted biodistribution in nude mice with CaPan1 xenografts. In kind it is in vivo, mouse. Particulars: 1 h after peptide, TF10 (162μg) pretargeted 18 h before.
A short description of series [9]: Stability of labelled peptide in human serum at 37℃, HPLC. It counts as in vitro ADME. As to conditions: for activity still attached to peptide: crude 18F labelling mixture (35% bound at start), pooled human serum 37℃; for 18F-labelled peptide stable in serum: purified 18F-labelled peptide.
Series [10] has as its target RIIα二聚体 (Homo sapiens, UniProt P13861). As to conditions: Stokka et al. 2006; cited from earlier work.
For series [11] the following is noted: in vivo.
The subject of series [12] is H1和H2组胺受体. As to the kind of experiment: In vitro study on cell lines bearing H1 and H2 histamine receptors. It counts as cell-based.

RIIα二聚体, sequence (P13861 whole entry): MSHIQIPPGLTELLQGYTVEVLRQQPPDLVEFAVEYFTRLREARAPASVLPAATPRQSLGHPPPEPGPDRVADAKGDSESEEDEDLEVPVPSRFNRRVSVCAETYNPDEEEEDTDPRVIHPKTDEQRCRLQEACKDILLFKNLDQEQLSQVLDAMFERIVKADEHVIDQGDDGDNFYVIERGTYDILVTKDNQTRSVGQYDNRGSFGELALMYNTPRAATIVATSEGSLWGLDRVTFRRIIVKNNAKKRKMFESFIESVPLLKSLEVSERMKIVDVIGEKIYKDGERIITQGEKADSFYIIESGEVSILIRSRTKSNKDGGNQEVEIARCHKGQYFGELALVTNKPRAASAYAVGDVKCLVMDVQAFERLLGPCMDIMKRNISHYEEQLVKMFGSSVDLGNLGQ

Consider `NC(=O)[C@@H](CCCCNC(=O)CNC(=O)CCC(=O)NCCc1c[nH]cn1)NC(=O)[C@@H](CCC(=O)O)NC(=O)[C@@H](CCCCNC(=O)CNC(=O)CCC(=O)NCCc1c[nH]cn1)NC(=O)[C@@H](Cc1ccc(O)cc1)NC(=O)CN1CCN(CC(=O)O)CCN(CC(=O)O)CCN(CC(=O)O)CC1` [68Ga-IMP 288, metal not drawn] ({DOTA}-[dY][dK]([Gly-Suc-NH(2-(imidazol-4-yl)ethyl)])[dE][dK]([Gly-Suc-NH(2-(imidazol-4-yl)ethyl)])-NH2), for which the “LS174T tumour uptake without TF2 pretargeting” value in [1] (1 h p.i.) is given as 0.20±0.03 %ID/g. Moreover, in series [1] (mouse, in vivo), the inflamed muscle-blood ratio is listed as 5.9±2.9 and the tumour-inflamed muscle ratio came out at 12.5±2.1. In [2], the “inflamed muscle-background ratio in PET image” value is 8.9 and the “tumour-inflamed tissue ratio in PET image” value is on record as 5.4.
On to `C[C@@H](O)[C@@H]1NC(=O)[C@H](CCCCN)NC(=O)[C@@H](Cc2c[nH]c3ccccc23)NC(=O)[C@H](Cc2ccccc2)NC(=O)[C@@H](NC(=O)[C@@H](Cc2ccccc2)NC(=O)CN2CCN(CC(=O)O)CCN(CC(=O)O)CC2)CSSC[C@@H](C(=O)N[C@H](CO)[C@@H](C)O)NC1=O` [68Ga-IMP 466, metal not drawn], for which, in series [3], the AR42J tumour uptake is recorded as 29.2±0.5 %ID/g, the kidney retention is recorded as 16.2±2.86 %ID/g and the lung uptake is reported as 4.0±0.9 %ID/g.
In the case of `NC(=O)[C@@H](CCCCNC(=O)CNC(=O)CCC(=O)NCCc1c[nH]cn1)NC(=O)[C@@H](CCC(=O)O)NC(=O)[C@@H](CCCCNC(=O)CNC(=O)CCC(=O)NCCc1c[nH]cn1)NC(=O)[C@@H](Cc1ccc(O)cc1)NC(=O)CN1CCN(CC(=O)O)CCN(CC(=O)O)CCN(CC(=O)O)CC1` [111In-IMP 288, metal not drawn] ({DOTA}-[dY][dK]([Gly-Suc-NH(2-(imidazol-4-yl)ethyl)])[dE][dK]([Gly-Suc-NH(2-(imidazol-4-yl)ethyl)])-NH2), the kidney uptake in series [1] (0.1 nmol peptide, independent of bsMAb dose) is 2 %ID/g.
For `C[C@@H](NC(=S)Nc1ccc(CC2CN(CC(=O)O)CCN(CC(=O)O)CCN2CC(=O)O)cc1)C(=O)N[C@H](CCCCNC(=O)CNC(=O)CCC(=O)NCCc1c[nH]cn1)C(=O)N[C@H](Cc1ccc(O)cc1)C(=O)N[C@H](CCCCNC(=O)CNC(=O)CCC(=O)NCCc1c[nH]cn1)C(N)=O` (stereo partly drawn) [111In-IMP 449, metal not drawn] (X1-[dA][dK]([Gly-Suc-NH(2-(imidazol-4-yl)ethyl)])[dY][dK]([Gly-Suc-NH(2-(imidazol-4-yl)ethyl)])-NH2), in series [4] (no pretargeting antibody), the “大肠 (large intestine) uptake, individual animals” value is recorded as 0.253 %ID/g; the “大肠 (large intestine) uptake, mean” value is given as 0.237 %ID/g; the “胃 (stomach) uptake, individual animals” value is recorded as 0.329 %ID/g; the “脑 (brain) uptake, individual animals” value was 0.197 %ID/g.
Consider `C[C@@H](O)[C@@H]1NC(=O)[C@H](CCCCN)NC(=O)[C@@H](Cc2c[nH]c3ccccc23)NC(=O)[C@H](Cc2ccccc2)NC(=O)[C@@H](NC(=O)[C@@H](Cc2ccccc2)NC(=O)CN2CCN(CC(=O)O)CCN(CC(=O)O)CC2)CSSC[C@@H](C(=O)N[C@H](CO)[C@@H](C)O)NC1=O` [Al18F-IMP 466], for which, in series [3], the AR42J tumour uptake was 28.3±5.7 %ID/g, the blood level was 0.10±0.07 %ID/g, the bone uptake is on record as 0.33±0.07 %ID/g and the kidney retention is reported as 9.96±1.27 %ID/g. Also, in [3], the lung uptake is given as 1.9±0.4 %ID/g and the tumour-blood ratio was found to be 299±88. The “AR42J tumour uptake with excess unlabelled IMP 466” value in series [3] (receptor blocking) is reported as 8.6±0.7 %ID/g.
For `C[C@@H](NC(=O)[C@H](CNC(=O)C[C@@H](N)c1ccccc1Br)NC(=O)CN(CCN(CCN(CC(=O)O)CC(=O)O)CC(=O)O)CC(=O)O)C(=O)N[C@H](CCCCNC(=O)CNC(=O)CCC(=O)NCCc1c[nH]cn1)C(=O)N[C@H](C)C(=O)N[C@H](CCCCNC(=O)CNC(=O)CCC(=O)NCCc1c[nH]cn1)C(N)=O` [IMP 375, DTPA-Dpr(2-Br-Phe-CHNH2-CH2-CO-)-D-Ala-D-Lys(HSG)-D-Ala-D-Lys(HSG)-NH2] ({DTPA}-[Dap](X2)[dA][dK]([Gly-Suc-NH(2-(imidazol-4-yl)ethyl)])[dA][dK]([Gly-Suc-NH(2-(imidazol-4-yl)ethyl)])-NH2), in series [5], the “stability of Al18F complex relative to IMP 272” value was “显著更稳定”.
For the compound `CSCC[C@H](NC(=O)[C@H](CC(C)C)NC(=O)[C@H](Cc1c[nH]cn1)NC(=O)CNC(=O)[C@@H](NC(=O)[C@H](C)NC(=O)[C@H](Cc1c[nH]c2ccccc12)NC(=O)[C@@H](NC(=O)[C@H](Cc1c[nH]c2ccccc12)NC(=O)[C@H](CCC(N)=O)NC(=O)CCCCCCCNC(=O)CN1CCN(CC(=O)O)CCN(CC(=O)O)CC1)C(C)C)C(C)C)C(N)=O` [IMP 468] ({NOTA-Aoc}-QWVWAVGHLM-NH2), the “blocking of 125I-BBN binding” value in series [6] was “阻断125I-BBN的结合”.
`C[C@@H](NC(=S)Nc1ccc(C[C@H]2CN(CC(=O)O)CCN(CC(=O)O)CCN2CC(=O)O)cc1)C(=O)N[C@H](CCCCNC(=O)CNC(=O)CCC(=O)NCCc1c[nH]cn1)C(=O)N[C@H](Cc1ccc(O)cc1)C(=O)N[C@H](CCCCNC(=O)CNC(=O)CCC(=O)NCCc1c[nH]cn1)C(N)=O` [[Al18F]IMP 449] ({NOTA(2S-Bn(4-NHCS))}-[dA][dK]([Gly-Suc-NH(2-(imidazol-4-yl)ethyl)])[dY][dK]([Gly-Suc-NH(2-(imidazol-4-yl)ethyl)])-NH2): in [7], the “大肠 (large intestine) uptake, individual animals” value was 0.167 %ID/g and 0.091 %ID/g and 0.094 %ID/g and 0.109 %ID/g; the “大肠 (large intestine) uptake, mean” value was 0.115 %ID/g; the “小肠 (small intestine) uptake, individual animals” value is 1.124 %ID/g and 1.247 %ID/g and 1.166 %ID/g and 1.624 %ID/g; the “小肠 (small intestine) uptake, mean” value was 1.290 %ID/g. For the same compound, in [7], the “肌肉 (muscle) uptake, individual animals” value is 0.077 %ID/g and 0.075 %ID/g; the “脊骨 (spine) uptake, individual animals” value is 0.268 %ID/g. Besides, in series [4] (TF2 163.2μg 16 h before), the “小肠 (small intestine) uptake, individual animals” value is 0.185 %ID/g; the “肌肉 (muscle) uptake, individual animals” value was 0.064 %ID/g; the “肝 (liver) uptake, individual animals” value was 0.196 %ID/g and 0.180 %ID/g; the “肝 (liver) uptake, mean” value is reported as 0.172 %ID/g. In addition, in series [4] (TF2 163.2μg 16 h before), the “股骨 (femur) uptake, mean” value is 0.625 %ID/g; the “肺 (lung) uptake, individual animals” value is 0.474 %ID/g and 0.230 %ID/g; the “胃 (stomach) uptake, mean” value is listed as 0.218 %ID/g; the “脾 (spleen) uptake, individual animals” value is 0.239 %ID/g and 0.118 %ID/g and 0.140 %ID/g. In series [4] (no pretargeting antibody), the “大肠 (large intestine) uptake, individual animals” value is recorded as 0.118 %ID/g; the “大肠 (large intestine) uptake, mean” value is 0.072 %ID/g; the “肝 (liver) uptake, individual animals” value is 0.141 %ID/g (2×) and 0.200 %ID/g and 0.185 %ID/g; the “股骨 (femur) uptake, individual animals” value is given as 0.080 %ID/g. Further, in [4] (no pretargeting antibody), the “股骨 (femur) uptake, mean” value was 0.100 %ID/g; the “脑 (brain) uptake, individual animals” value is on record as 0.077 %ID/g; the “脾 (spleen) uptake, mean” value was 0.118 %ID/g. The LS174T tumour uptake in series [1] (6.0 nmol TF2 16 h before, 0.25 nmol peptide) was 10.6±1.7 %ID/g. Also, the bone uptake in [1] (mouse, in vivo) is on record as 0.54±0.2 %ID/g. For the same compound, in series [8], the CaPan1 tumour uptake was 4.6±0.9 %ID/g.
Take “C-NETA-琥珀酰-D-Lys(HSG)-D-Tyr-D-Lys(HSG)-NH2 [IMP 467]”: in [9] (HLB-purified, human serum 37℃, 5 h), the “decomposition of 18F-labelled peptide in serum” value is “没有可检测的分解”.
Take DLIEEAASRIVDAVIEQVKAAGAY [Ht-31]: in series [10], the PKA isoform preference result is on record as “对PKA的RII同种型更大的亲和力”.
In the case of “DOTA-D-Tyr-D-Lys(HSG)-D-Glu-D-Lys(HSG)-NH2 [IMP 288]”, the “histamine-related pharmacological activity in animals” value in series [11] is “没有与组胺组分相关的肽的药理活性”. In series [12], the “antagonist or agonist activity at histamine receptors” value is listed as “没有拮抗或激动活性”.
“DTPA-Dpr(DTPA)-D-Ala-D-Lys(HSG)-D-Ala-D-Lys(HSG)-NH2 [IMP 333]”: the “blocking of 125I-BBN binding” value in [6] is listed as “不能”.
Regarding FEELAWKIAKMIWSDVFQQC [PV-38], the PKA isoform preference result in series [10] is given as “对RI更大的亲和力”.
In the case of LEQYANQLADQIIKEATE [RIAD], the PKA isoform preference result in series [10] is on record as “对RI更大的亲和力”.
Consider “NOTA-ITC苄基-D-Ala-D-Lys(HSG)-D-Tyr-D-Lys(HSG)-NH2 [IMP 449]”, for which the “activity still attached to peptide” value in series [9] (15 min) is 9.8 %; in [9] (1 h), 7.6 %. Also, the “decomposition of metal-18F-peptide complex” value in series [9] (prepared with ascorbic acid as stabiliser, serum 37℃, 4 h) is “没有可检测的分解”. Moreover, the “18F-labelled peptide stable in serum” value was 91 % in [9] (human serum 37℃, at least 1 h) and 76 % in [9] (human serum 37℃, at least 4 h).
